Our source for the Activity and inhibition of growth values is ChEMBL document CHEMBL1154710, “Synthesis, anti-inflammatory and anticancer activity evaluation of some novel acridine derivatives” (2010).

Structures are written as SMILES.

Common to all, as to assay type: functional
Test [1] deals with Rattus norvegicus. Nature of the test: Antiinflammatory activity in albino Charles-Foster rat assessed as inhibition of carrageenan-induced paw oedema at 50 mg/kg, po administered 30 mins before carrageenan challenge […] after 1-3 hrs relative to control. Details: scale not given: the % may be the effect or the level left.
Test [2] deals with MCF7. Nature of the test: Growth inhibition of human MCF7 cells at 10 uM after 48 hrs by SRB assay. The note with it: MCF7, 48 h, read-out: GI. (In general: The SRB assay estimates cell density from bound dye.)
Test [3] has as its system HEp-2. Nature of the test: Growth inhibition of human Hep2 cells at 10 uM after 48 hrs by SRB assay. The conditions noted are these: HEp-2, 48 h, read-out: GI.
For test [4], the system named is COLO 205. Nature of the test: Growth inhibition of human COLO205 cells at 10 uM after 48 hrs by SRB assay. The note with it: COLO 205, 48 h, read-out: GI.
Test [5] deals with OVCAR-5. Nature of the test: Growth inhibition of human OVCAR5 cells at 10 uM after 48 hrs by SRB assay. The note with it: OVCAR-5, 48 h, read-out: GI.
The subject of test [6] is DU-145. Nature of the test: Growth inhibition of human DU145 cells at 10 uM after 48 hrs by SRB assay. The conditions noted are these: DU-145, 48 h, read-out: GI.
Test [7] relates to PC-3. Nature of the test: Growth inhibition of human PC3 cells at 10 uM after 48 hrs by SRB assay. The conditions noted are these: PC-3, 48 h, read-out: GI.
The nature of test [8]: Growth inhibition of human 502713 cells at 10 uM after 48 hrs by SRB assay. The note with it: Homo sapiens, 502713, 48 h; read-out: GI.
For test [9], the system named is HCT-15. Nature of the test: Growth inhibition of human HCT15 cells at 10 uM after 48 hrs by SRB assay. The note with it: HCT-15, 48 h, read-out: GI.
The test system of test [10] is A549. Nature of the test: Growth inhibition of human A549 cells at 10 uM after 48 hrs by SRB assay. The note with it: A549, 48 h, read-out: GI.
For test [11], the system named is IMR-32. Nature of the test: Growth inhibition of human IMR32 cells at 10 uM after 48 hrs by SRB assay. The note with it: IMR-32, 48 h, read-out: GI.

Take `COc1ccc2nc3ccccc3c(NCCc3c[nH]c4ccccc34)c2c1`: the Activity in [1] came to 31.33%. In addition, the inhibition of growth at 10 µM in test [2] is 42%; in [3] it was 9%; in [4], 0%; in test [5], 23%; in [6] it was 25%; in test [7], 51%.
With `COc1ccc2nc3ccccc3c(NCC3CCCO3)c2c1` (racemic), in test [1], the Activity is 20.16%. In addition, the inhibition of growth at 10 µM in test [2] worked out at 42%; in test [3], 11%; in [4], 61%; in test [5] it was 41%; in test [6] it was 9%; in [7], 37%.
In the case of `COc1ccc2nc3ccccc3c(NC(=S)NCc3ccco3)c2c1`, the Activity in test [1] is listed as 30.98%. In addition, the inhibition of growth at 10 µM in test [2] worked out at 35%; in test [3] it was 26%; in [4], 23%; in test [8], 45%; in [9], 61%; in [10], 37%. Besides, the inhibition of growth at 10 µM in test [11] was 71%.
On to `Cc1cccc2c(NCc3ccco3)c3ccccc3nc12`, for which the Activity in [1] came out at 0%. Further, the inhibition of growth at 10 µM in [2] amounted to 58%; in [3] it was 51%; in test [4], 72%; in test [8], 52%; in test [9], 74%; in test [10], 52%. For the same compound, the inhibition of growth at 10 µM in test [11] was determined as 86%.
As to `Cc1cccc2c(NCCc3c[nH]c4ccccc34)c3ccccc3nc12`, the Activity in [1] is 31.03%. The inhibition of growth at 10 µM in [2] was 53%; in test [3], 23%; in test [4], 69%; in [5], 51%; in test [6], 42%; in test [7], 53%.
Consider `Cc1cccc2c(NCC3CCCO3)c3ccccc3nc12` (racemic), for which the Activity in [1] is recorded as 34.02%. For the same compound, the inhibition of growth at 10 µM turned out to be 45% in test [2]; 18% in test [3]; 46% in [4]; 54% in test [5]; 17% in test [6]; 61% in test [7].
As for `Cc1cccc2c(NCCc3cccs3)c3ccccc3nc12`, in test [1], the Activity is listed as 33.09%. Also, the inhibition of growth at 10 µM in test [2] turned out to be 73%; in test [3], 41%; in [4], 79%; in [5], 6%; in [6], 41%; in [7], 52%.
